# Measured values published in patent publication US20220267300A1 (NodThera Limited, priority 2019, published 2022).
# pIC50: −log10 of the molar value.
# System: IL-1β release upon NLRP3 activation in peripheral blood mononuclear cells (PBMC)
# Test: PBMC IC50 determination assay (inhibition of IL-1β release)
# Assay type: cell-based
# Conditions: Homo sapiens; IL-1β release from LPS-primed PBMC stimulated with ATP (5 mM) or nigericin (10 μM); ELISA or HTRF; corresponding sodium salts evaluated
# Procedure: The compounds of the present disclosure were tested for their inhibitory activity against IL-1β release upon NLRP3 activation in peripheral blood mononuclear cells (PBMC).
# Protocol A. PBMC were isolated from buffy coats by density gradient centrifugation on Histopaque-1077 (Sigma, cat no. 10771). Isolated cells were seeded into the wells of a 96-well plate and incubated for 3 h with lipopolysaccharide (LPS). Following medium exchange, the compounds of the present disclosure were added (a single compound per well) and the cells were incubated for 30 min. Next, the cells were stimulated either with ATP (5 mM) or nigericin (10 μM) for 1 h and the cell culture media from the wells were collected for further analysis.
# The release of IL-1β into the media was determined by a quantitative detection of IL-1β in the media using an IL-1β enzyme-linked immunosorbent assay (ELISA) Ready-SET-Go!, eBioscience cat. No. 88-7261-88. Briefly, in a first step, high affinity binding plates (Corning, Costar 9018 or NUNC Maxisorp Cat No. 44-2404) were coated overnight at 4° C. with specific capture antibody included in the kit (anti-human IL-1β ref. 14-7018-68). Subsequently, plates were blocked with blocking buffer for 1 h at room temperature (rt) and after washing with a buffer (PBS with 0.05% Tween-20) incubated with protein standard and culture media. After 2 h of incubation at rt, plates were washed and incubated with biotinylated detection antibody included in the kit (anti-human IL-1β Biotin ref. 33-7110-68) for 1 h at rt. Plates were washed and incubated with HRP-streptavidin for 30 min at rt and washed again. The signal was developed after addition of 3,3′,5,5′-tetramethylbenzidine-peroxidase (TMB) until colour appeared and the reaction was stopped by 2 M H2SO4. A microplate spectrophotometer (BioTek) was used to detect signals with 450 nm. The detection range of IL-1β ELISA was 2-150 ng/ml.
# Protocol B. PBMC were isolated from buffy coats by density gradient centrifugation on Histopaque-1077 (Sigma, cat no. 10771). Isolated cells were seeded into the wells (280,000 cells/well) of a 96-well plate and incubated for 3 h with lipopolysaccharide (LPS, 1 μg/ml diluted 1000× from a 1 mg/ml stock solution). The compounds of the present disclosure were added (a single compound per well) and the cells were incubated for 30 min. Next, the cells were stimulated with ATP (5 mM final concentration diluted 20× from a 100 mM stock solution) for 1 h and the cell culture media from the wells were collected for further analysis.
# The release of IL-1β into the media was determined by quantitative detection of IL-1β in the media using HTRF®, CisBio cat. No. 62HIL1BPEH. Briefly, cell culture supernatant were dispensed directly into the assay plate containing antibodies labelled with the HTRF® donor and acceptor. A microplate spectrophotometer (BMG) was used to detect signals at 655 nm and 620 nm. The detection range of IL-1β HTRF® was 39-6500 pg/ml.
row,SMILES,pIC50
1,"Cn1cc(N(CCNCC(F)F)S(=O)(=O)NC(=O)Cc2c3c(cc4c2CCC4)CCC3)cn1 [Example 24, N-({2-[(2,2-Difluoroethyl)amino]ethyl}(1-methyl-1H-pyrazol-4-yl)sulfamoyl)-2-(1,2,3,5,6,7-hexahydro-s-indacen-4-yl)acetamide]",> 6.00
2,"CN(CCN(c1cnn(C)c1)S(=O)(=O)NC(=O)Cc1c2c(cc3c1CCC3)CCC2)C(=O)OCc1ccccc1 [Example 25, Benzyl N-[2-({[2-(1,2,3,5,6,7-hexahydro-s-indacen-4-yl)acetamido]sulfonyl}(1-methyl-1H-pyrazol-4-yl)amino)ethyl]-N-methylcarbamate]",5.00 to 5.52
3,"CC(=O)N(C)CCN(c1cnn(C)c1)S(=O)(=O)NC(=O)Cc1c2c(cc3c1CCC3)CCC2 [Example 26, 2-(1,2,3,5,6,7-Hexahydro-s-indacen-4-yl)-N-[(1-methyl-1H-pyrazol-4-yl)[2-(N-methylacetamido)ethyl]sulfamoyl]acetamide]",5.00 to 5.52
4,"Cn1cc(N(CCCNC(=O)OCc2ccccc2)S(=O)(=O)NC(=O)Cc2c3c(cc4c2CCC4)CCC3)cn1 [Example 27, Benzyl N-[3-[[2-(1,2,3,5,6,7-hexahydro-s-indacen-4-yl)acetyl]sulfamoyl-(1-methylpyrazol-4-yl)amino]propyl]carbamate]",5.52 to 6.00
5,"COc1cc(-c2cc(F)cc(C(C)C)c2CC(=O)NS(=O)(=O)N(c2cnn(C)c2)C2CCCN(C)C2)ccn1 (stereo not drawn) [Example 28, 2-[4-Fluoro-2-isopropyl-6-(2-methoxy-4-pyridyl)phenyl]-N-[(1-methyl-3-piperidyl)-(1-methylpyrazol-4-yl)sulfamoyl]acetamide]",5.00 to 5.52
6,"CN1CCC(N(c2cnn(C)c2)S(=O)(=O)NC(=O)Cc2c3c(cc4c2CC4)CC3)CC1 [Example 29, N-[(1-methyl-4-piperidyl)-(1-methylpyrazol-4-yl)sulfamoyl]-2-(2-tricyclo[6.2.0.03,6]deca-1(8),2,6-trienyl)acetamide]",5.52 to 6.00
7,CC(C)c1cc(F)cc(C(C)C)c1CC(=O)NS(=O)(=O)N(c1cnn(C)c1)C1CCOCC1 [Example 30],≤ 4.30
8,CC(C)c1cc(F)cc(C(C)C)c1CC(=O)NS(=O)(=O)N(c1cnn(C)c1)C1CCN(C)CC1 [Example 31],≤ 4.30
9,Cc1cc(C)cc(CC(=O)NS(=O)(=O)N(c2cnn(C)c2)C2CCCN(C)C2)c1 (stereo not drawn) [Example 32],≤ 4.30
10,CN1CCCC(N(c2cnn(C)c2)S(=O)(=O)NC(=O)Cc2cc(Cl)cc(Cl)c2)C1 (stereo not drawn) [Example 33],4.30 to 5.00
11,Cn1cc(N(CCCN)S(=O)(=O)NC(=O)Cc2c3c(cc4c2CCC4)CCC3)cn1 [Example 34],≤ 4.30
12,CN1CCC[C@H]1CN(c1cnn(C)c1)S(=O)(=O)NC(=O)Cc1ccc(C(F)(F)F)cc1Cl [Example 37],≤ 4.30
13,CC(C)c1cc(CC(=O)NS(=O)(=O)N(CC2CCCO2)c2cnn(C)c2)cc(C(C)C)c1 (stereo not drawn) [Example 38],4.30 to 5.00
14,CC(C)c1cc(CC(=O)NS(=O)(=O)N(C[C@H]2C[C@@H](F)CN2C)c2cnn(C)c2)cc(C(C)C)c1 [Example 39],≤ 4.30
15,CC(C)c1cc(Cl)cc(C(C)C)c1CC(=O)NS(=O)(=O)N(C[C@@H]1CCCN1C)c1cnn(C)c1 [Example 40],≤ 4.30
16,CC(C)c1cc(CC(=O)N=S(N)(=O)N(c2cnn(C)c2)C2CCCN(C)C2)cc(C(C)C)c1 (stereo not drawn) [Example 41],5.00 to 5.52
17,Cc1ccc(C(C)C)cc1CC(=O)NS(=O)(=O)N(c1cnn(C)c1)C1CCCN(C)C1 (stereo not drawn) [Example 48],≤ 4.30
18,CN1CCCC(N(c2cnn(C)c2)S(=O)(=O)NC(=O)Cc2ccc3c(c2)C(C)(C)CO3)C1 (stereo not drawn) [Example 49],≤ 4.30
19,CC(C)c1ccc(C(C)C)c(CC(=O)NS(=O)(=O)N(C[C@@H]2CCCN2C)c2cnn(C)c2)c1 [Example 50],≤ 4.30
20,CN1CCC[C@H]1CN(c1cnn(C)c1)S(=O)(=O)NC(=O)Cc1cc(Cl)cc(OCC(F)(F)F)c1 [Example 51],≤ 4.30
21,CN1CCC[C@H]1CN(c1cnn(C)c1)S(=O)(=O)NC(=O)Cc1cc(C(C)(C)C)cc(C(C)(C)C)c1 [Example 52],≤ 4.30
22,CC(C)c1cccc(CC(=O)NS(=O)(=O)N(c2cnn(C)c2)C2CCCN(C)C2)c1 (stereo not drawn) [Example 53],≤ 4.30
23,CN1CCC[C@@H]1CN(c1cnn(C)c1)S(=O)(=O)NC(=O)Cc1cc(C(C)(C)C)cc(C(C)(C)C)c1 [Example 54],4.30 to 5.00
24,CC(C)c1cc(CC(=O)NS(=O)(=O)N(C[C@@H]2CCCN2C)c2cnn(C)c2)cc(C(C)C)c1Cl [Example 55],4.30 to 5.00
